Experimental data taken from patent US10894036B2, “Use of marizomib for the treatment of central nervous system (CNS) cancers” (Celgene International II Sàrl, priority 2016, dated 2021).
Entries after “also recorded” stand apart in the source; their conditions may differ.

Columns and labels:
[1] = Phase 1b MRZ + TMZ (+RT) in newly diagnosed G4 MG: adverse events, DLT; assay type: in vivo, human
Protocol: This is a Phase 1b, open-label, 3+3, dose-escalation followed by dose-expansion study in patients with newly diagnosed G4 MG who have not previously received any local or systemic therapy for their G4 MG. The study will examine the effect of the addition of MRZ to standard of care treatment utilizing two study arms: Concomitant Treatment in which MRZ will be combined with TMZ+RT and Adjuvant Treatment in which MRZ will be combined with TMZ. The study will be conducted in two Stages. In Stage 1 (Dose-Escalation): 3 to 6 evaluable patients per MRZ dose cohort will be enrolled in each study arm. […] A total of approximately 48 patients will be enrolled in Stages 1 and 2 combined. Patients may not be enrolled in more than 1 MRZ dose cohort per arm.
Concomitant Treatment consists of a 6 week (42 day) treatment period, followed by a 4 (−1) week break from treatments. All patients will receive intravenous (IV) MRZ infusion on Days 1, 8, 15, 29, and 36 as a 10 minute infusion. IV hydration will be given prior to the infusion. Focal RT will be administered once daily, 5 days/week, for 30 doses over 6 weeks to a total dose of 60 Gy, starting on Day 1. TMZ will be administered once daily, 7 days/week, for 6 weeks, starting on Day 1, at a dose of 75 mg/m^2. Patients who complete Concomitant Treatment may continue on to Adjuvant Treatment.
All patients will receive IV MRZ infusion on Days 1, 8, and 15 as a 10 minute infusion, in 28-day cycles. IV hydration will be given prior to the infusion. TMZ will be administered daily for 5 consecutive days, starting on Day 1 of Cycle 1 (C1D1), at a dose of 150 mg/m^2. If tolerated in Cycle 1, the TMZ dose will be increased on Day 1 of Cycle 2 (C2D1) to a dose of 200 mg/m^2.

[2] = system: trypsin-like (T-L) proteasome activity; experiment: Proteasome inhibition in packed whole blood: T-L; assay type: in vivo, human; conditions: for compensatory hyperactivation of T-L and C-L proteasome subunits: repeated dosing
Excerpt: The drugs were infused on 28-Day Cycles.
Change in proteasome activities in packed whole blood (PWB) lysates and peripheral blood mononuclear cell (PBMC) lysates, comparing pre-drug and post drug levels on Days 1, 8, and 15 of Cycle 1; Days 1 and 15 of each Cycle thereafter; and at the End-of Treatment Visit.
The laboratory correlates include assessment of the percentage inhibition of proteasome function (evaluated by measurement of CT-L, T-L and C-L activity in blood isolates such as whole blood and PBMC lysates.
PD analysis will include change in proteasome activities (whole blood lysates and PBMC lysates) by comparing pre-drug and post drug levels on Days 1, 8, and 15 (i.e., for each dose) of Cycle 1 and Days 1 and 15 (i.e., for the first and last doses) of each cycle thereafter.

[3] = system: CNS-MM; experiment: Compassionate use of marizomib in CNS-myeloma patients: response (IMWG, CSF, MRI, neurological); assay type: in vivo, human
Protocol: This example sets forth seven case studies in which CNS-MM (i.e., multiple myeloma with CNS involvement) was treated using marizomib alone or in combination with other agents.
Daratumumab (16 mg/kg weekly×2 months) was added with continued marizomib.
Marizomib was given on compassionate use protocol (see above) at 0.7 mg/m^2 as a 10 min IV infusion on days 1, 8 and 15 along with dexamethasone on a 28 day Cycle.
In July 2016, marizomib was given on compassionate use protocol at 0.8 mg/m^2 as a 10 min IV infusion on days 1, 8 and 15 along with dexamethasone on a 28 day Cycle. Pomalidomide was also given at 4 mg daily on days 1 through days 21.
In August 2016, marizomib was given on compassionate use protocol at 0.7 mg/m^2 as a 10 min IV infusion on days 1, 8 and 15 along with dexamethasone on a 28 day Cycle. Pomalidomide was dosed at 4 mg daily on days 1 through days 21.
The patient was treated with marizomib, oral pomalidomide, and oral dexamethasone.
All patients had systemic disease with CNS involvement.

[4] = 10 mg/kg dose, Gordon et al., 2001; cited from earlier work
[5] = N = 20, related to the labelled drug
[6] = N = 20, related to the labelled drug (MRZ+TMZ = related to both)
[7] = patient 301-A202, action taken None
[8] = patient 301-C202, action taken None
[9] = 7 CNS-MM patients, listed as Marizomib

## C[C@@]12OC(=O)[C@]1([C@@H](O)[C@@H]1C=CCCC1)NC(=O)[C@@H]2CCCl [marizomib]
[1]; N = 20
  Discontinued, reason Adverse Event: 1 (5.0%)
  Dose reduction, reason Adverse Event: 1 (5.0%)
  Number of Patients with drug Discontinued: 1 (5.0%)
  Number of Patients with ≥1 Dose Reduction: 1 (5.0%)
  patients with MRZ-related serious adverse events: One
  patients with fatigue Grade ≥3: Three
[1]; [5]
  Abdominal pain, Grade ≥3 TEAE, drug related: 0 (0.0%)
  Confusional state, treatment-related TEAE, number of patients: 3
  Confusional state, treatment-related TEAE, percent of patients: (15.0%)
  Constipation, treatment-related TEAE, number of patients: 1
  Constipation, treatment-related TEAE, percent of patients: (5.0%)
  Decreased appetite, treatment-related TEAE, number of patients: 4
  Decreased appetite, treatment-related TEAE, percent of patients: (20.0%)
  Dehydration, Grade ≥3 TEAE, drug related: 1 (5.0%)
  Diarrhoea, treatment-related TEAE, number of patients: 2
  Diarrhoea, treatment-related TEAE, percent of patients: (10.0%)
  Dizziness, treatment-related TEAE, number of patients: 4
  Dizziness, treatment-related TEAE, percent of patients: (20.0%)
  Hallucination, Grade ≥3 TEAE, drug related: 1 (5.0%)
  Hallucination, treatment-related TEAE, number of patients: 5
  Hallucination, treatment-related TEAE, percent of patients: (25.0%)
  Headache, Grade ≥3 TEAE, drug related: 0 (0.0%)
  Headache, treatment-related TEAE, number of patients: 3
  Headache, treatment-related TEAE, percent of patients: (15.0%)
  Insomnia, Grade ≥3 TEAE, drug related: 0 (0.0%)
  Muscular weakness, treatment-related TEAE, number of patients: 3
  Muscular weakness, treatment-related TEAE, percent of patients: (15.0%)
  Musculoskeletal pain, Grade ≥3 TEAE, drug related: 0 (0.0%)
  Nausea, treatment-related TEAE, number of patients: 9
  Nausea, treatment-related TEAE, percent of patients: (45.0%)
  Ovarian cyst, Grade ≥3 TEAE, drug related: 0 (0.0%)
  Pelvic infection, Grade ≥3 TEAE, drug related: 0 (0.0%)
  Platelet count decreased, Grade ≥3 TEAE, drug related: 1 (5.0%)
  Platelet count decreased, treatment-related TEAE, number of patients: 2
  Platelet count decreased, treatment-related TEAE, percent of patients: (10.0%)
  Rash maculo-papular, treatment-related TEAE, number of patients: 1
  Rash maculo-papular, treatment-related TEAE, percent of patients: (5.0%)
  Vomiting, Grade ≥3 TEAE, drug related: 1 (5.0%)
  Vomiting, treatment-related TEAE, number of patients: 5
  Vomiting, treatment-related TEAE, percent of patients: (25.0%)
[1]; [6]
  Fatigue, Grade ≥3 TEAE, drug related: 3 (15.0%)
  Fatigue, treatment-related TEAE, number of patients: 13
  Fatigue, treatment-related TEAE, percent of patients: (65.0%)
[1]; interim analysis, 20 patients
  Grade 2 SAEs (nausea, confusional state), MRZ-related: two
  Grade 3 SAEs (fatigue, hallucination, vomiting), MRZ-related: three
[1]; newly diagnosed G4 MG
  tolerability: well tolerated
[1]; patient 104-C302, action taken None
  SAE Nephrolithiasis, relationship to drug: Not Suspected/
[1]; [7]
  SAE Confusional state, relationship to drug: Suspected/
  SAE Dehydration, relationship to drug: Not Suspected/
  SAE Fatigue, relationship to drug: Suspected/
  SAE Hallucination, relationship to drug: Suspected/
  SAE Nausea, relationship to drug: Suspected/
  SAE Vomiting, relationship to drug: Suspected/
[1]; patient 301-C202, action taken Dose Delayed
  SAE Ovarian cyst, relationship to drug: Not Suspected/
[1]; [8]
  SAE Convulsion, relationship to drug: Not Suspected/
  SAE Pelvic infection, relationship to drug: Not Suspected/
[2]; PWB post-MRZ infusion (peak effect), 0.7 mg/m^2 (17 May 2016)
  % T-L inhibition: 77.3 ± 10.5 (3) %
[2]
  compensatory hyperactivation of T-L and C-L proteasome subunits: overcome compensatory hyperactivation of proteasome subunits; also recorded: overcomes compensatory hyperactivation
[2]; listed as MRZ
  compensatory hyperactivation of T-L and C-L proteasome subunits: overcomes compensatory hyperactivation of proteasome subunits
[3]; 7 CNS-MM patients
  complete responses: two
  partial responses: 3
  patients with at least a partial response (overall response rate): five of seven
  patients with survival greater than four months: four of seven
[3]; 7 CNS-MM patients, listed as MRZ
  patients with at least a partial response (overall response rate): Five of 7
[3]; [9]
  complete responses: 2
  patients with at least a partial response (overall response rate): 5/7
[3]; Case 1
  Neurological Assessment: Reduction of CSF plasma cells
  reduction of CSF plasmacytosis: 99%
[3]; Case 1, C2D1
  Reduction of CSF plasma cells: (90% C2D1)
[3]; Case 2
  Neurological Assessment: sustained complete resolution of CSF plasmacytosis; also recorded: No CSF plasma cells detected; also recorded: Stable remission by MRI
[3]; Case 2, ongoing C13
  Response: CR by serology; stable remission
[3]; Case 3
  Neurological Assessment: undetectable CSF plasmacytosis since C3D1; also recorded: No evidence of FDG-avid lesions
[3]; Case 3: MRZ 0.8 mg/m^2 + POM 4 mg + DEX 20 mg
  IMWG Assessment Systemic Disease: ongoing complete response
[3]; Case 3, ongoing C8
  Response: CR - no evidence of active disease:
[3]; Case 4
  Neurological Assessment: Transient improvement through
[3]; Case 4, discontinued on C3
  Response: Best response PR with PD after C3
[3]; Case 5, discontinued C1
  Response: Pleural effusion following C1D1
[3]; Case 6
  Neurological Assessment: resolution of CNS disease; also recorded: Complete resolution of central
  reduction in systemic paraprotein: 77%
[3]; Case 6, from 18 g/L
  Paraprotein after decrease: 18 to 4 g/L
[3]; Case 7: MRZ 0.7 mg/m^2 + LEN 25 mg + DEX 10 mg
  IMWG Assessment Systemic Disease: PD (increase in tumor of ≥25% from lowest response value)
[3]; Case 7: MRZ 0.7 mg/m^2 + LEN 25 mg + DEX 10 mg, listed as MRZ
  IMWG Assessment Systemic Disease: progressive disease

## bevacizumab [reference compound]
[4]
  Cmax of bevacizumab at Day 0: 284 µg/mL
